The record followed here is DBAASP.

The structures appear in SMILES notation. Converted amounts (≈) assume the structure as drawn.

Among the test systems are Escherichia coli DL7; Bacillus subtilis PS832; Escherichia coli ER2566; Escherichia coli UB1005; Escherichia coli 078; Escherichia coli 44102; Escherichia coli K88.
Holding throughout (experiment): ≥ marks a high value that may be exact or a test limit, other limits are often not marked, values filed in µg/mL are converted to µM
Assay [1] has as its system Bacillus subtilis KCTC 3068.
In assay [2] the test system is Pseudomonas aeruginosa KCTC 1637.
Assay [3] relates to Salmonella typhimurium KCTC 1926.
Assay [4] deals with Acinetobacter baumannii CCARM 12036.
Assay [5] has as its system Staphylococcus aureus CCARM 3090.
For assay [6], the system named is Staphylococcus aureus KCTC 1916.
Assay [7] concerns Staphylococcus aureus CCARM 3126.
In assay [8] the test system is Escherichia coli CCARM 1238.
For assay [9], the system named is Escherichia coli KCTC 1682.
Assay [10] concerns Pseudomonas aeruginosa KCTC 2513.
For assay [11], the system named is Staphylococcus aureus CCARM 3108.
Assay [12] relates to Staphylococcus aureus KCTC 3881.
The subject of assay [13] is Pseudomonas aeruginosa CCARM 2095.
The subject of assay [14] is Salmonella typhimurium CCARM 8003.
Assay [15] concerns Acinetobacter baumannii CCARM 12037.
The test system of assay [16] is Salmonella typhimurium CCARM 8009.
In assay [17] the test system is Pseudomonas aeruginosa CCARM 2002.
The test system of assay [18] is Salmonella typhimurium CCARM 8007.
Assay [19] has as its system Staphylococcus aureus CCARM 3089.
Assay [20] relates to Pseudomonas aeruginosa CCARM 2163.
The subject of assay [21] is Acinetobacter baumannii CCARM 12005.
Assay [22] has as its system Bacillus subtilis KCTC 1022.
Assay [23] deals with Pseudomonas aeruginosa CCARM 2003.
Assay [24] has as its system Escherichia coli KCTC 2571.
The test system of assay [25] is Staphylococcus epidermidis KCTC 1917.
Assay [26] deals with Staphylococcus aureus KCTC 1621.
Assay [27] deals with Acinetobacter baumannii CCARM 12035.
Assay [28] has as its system Staphylococcus aureus CCARM 3114.
The subject of assay [29] is Pseudomonas aeruginosa KCTC 2004.
Assay [30] has as its system Escherichia coli CCARM 1229.
Assay [31] has as its system Bacillus subtilis KCTC 1021.
The subject of assay [32] is Escherichia coli KCTC 2593.
In assay [33] the test system is Klebsiella aerogenes ATCC 13048.
Assay [34] concerns Staphylococcus epidermidis ATCC 12228.
Assay [35] concerns Staphylococcus aureus BCRC 10780.
Assay [36] relates to Streptococcus pneumoniae BCRC 10794.
Assay [37] deals with Salmonella enterica subsp. enterica serovar Typhimurium C77-31.
Assay [38] concerns Enterococcus faecalis ATCC 29212.
Assay [39] has as its system Pseudomonas aeruginosa ATCC 27853.
Assay [40] deals with Pseudomonas aeruginosa ATCC 10419.
For assay [41], the system named is Salmonella enterica subsp. enterica serovar Pullorum C79-13.
In assay [42] the test system is Salmonella enterica subsp. enterica serovar Typhimurium ATCC 14028.
Assay [43] relates to Bacillus subtilis ATCC 11060.
The subject of assay [44] is Pseudomonas aeruginosa ATCC 21625.
Assay [45] has as its system Pseudomonas aeruginosa ATCC 21630.
In assay [46] the test system is Staphylococcus aureus ATCC 25923.

As a reminder, the MIC is the smallest concentration in the dilution series that meets the test's criterion for growth inhibition. High values mean a less susceptible organism, low ones a more susceptible organism. For the molecule `CC[C@H](C)[C@H](NC(=O)CNC(=O)[C@H](CCCN=C(N)N)NC(=O)[C@H](Cc1ccccc1)NC(=O)[C@@H](NC(=O)[C@H](Cc1cnc[nH]1)NC(=O)[C@H](Cc1cnc[nH]1)NC(=O)[C@H](Cc1ccccc1)NC(=O)[C@H](C)N)[C@@H](C)CC)C(=O)N[C@H](C(=O)N[C@@H](Cc1cnc[nH]1)C(=O)N[C@H](C(=O)NCC(=O)N[C@@H](CCCCN)C(=O)N[C@H](C(=O)N[C@H](C(=O)N[C@@H](Cc1cnc[nH]1)C(=O)N[C@@H](CCCN=C(N)N)C(=O)N[C@@H](CC(C)C)C(=O)N[C@H](C(=O)N[C@H](C(=O)NCC(=O)O)[C@@H](C)O)C(C)C)[C@@H](C)CC)[C@@H](C)O)C(C)C)C(C)C` [AFHHIFRGIVHVGKTIHRLVTG], the MIC in assay [1] was found to be 4 µM (≈ 9.98 µg/mL); in assay [2], 4 µM (≈ 9.98 µg/mL); in [3], 8 µM (≈ 20 µg/mL); in assay [4], 2 µM (≈ 4.99 µg/mL); in assay [5], 8 µM (≈ 20 µg/mL); in assay [6], 1 µM (≈ 2.5 µg/mL). Besides, the MIC in [7] worked out at 8 µM (≈ 20 µg/mL); in [8], 8 µM (≈ 20 µg/mL); in assay [9], 2 µM (≈ 4.99 µg/mL); in assay [10], 8 µM (≈ 20 µg/mL); in assay [11], 8 µM (≈ 20 µg/mL); in assay [12], 2 µM (≈ 4.99 µg/mL). The MIC in assay [13] was determined as 2 µM (≈ 4.99 µg/mL); in assay [14] it was 8 µM (≈ 20 µg/mL); in assay [15], 2 µM (≈ 4.99 µg/mL); in [16] it was 8 µM (≈ 20 µg/mL); in [17], 2 µM (≈ 4.99 µg/mL); in assay [18] it was 8 µM (≈ 20 µg/mL). The MIC is 8 µM (≈ 20 µg/mL) in assay [19]; 2 µM (≈ 4.99 µg/mL) in assay [20]; 2 µM (≈ 4.99 µg/mL) in assay [21]; 1 µM (≈ 2.5 µg/mL) in assay [22]; 2 µM (≈ 4.99 µg/mL) in [23]; 2 µM (≈ 4.99 µg/mL) in assay [24]. In addition, the MIC in [25] worked out at 2 µM (≈ 4.99 µg/mL); in [26], 1 µM (≈ 2.5 µg/mL); in [27] it was 2 µM (≈ 4.99 µg/mL); in assay [28], 8 µM (≈ 20 µg/mL); in assay [29], 4 µM (≈ 9.98 µg/mL); in assay [30], 8 µM (≈ 20 µg/mL). The MIC in assay [31] is 4 µM (≈ 9.98 µg/mL); in assay [32], 2 µM (≈ 4.99 µg/mL).

Take `CC[C@H](C)[C@H](NC(=O)[C@H](CCCN=C(N)N)NC(=O)[C@H](CCCCN)NC(=O)[C@H](CC(C)C)NC(=O)[C@H](CC(C)C)NC(=O)CNC(=O)[C@H](Cc1cnc[nH]1)NC(=O)[C@H](C)NC(=O)[C@@H](N)CC(=O)O)C(=O)N[C@@H](CCCCN)C(=O)N[C@H](C(=O)N[C@@H](CC(C)C)C(=O)N[C@@H](CC(C)C)C(N)=O)[C@@H](C)O` [DAHGLLKRIKTLL]: the MIC was 8 µM (≈ 11.8 µg/mL) with Escherichia coli DL7, at least 32 µM in assay [33], 16 µM (≈ 23.6 µg/mL) in assay [34] and 2 µM (≈ 2.95 µg/mL) with Bacillus subtilis PS832.

With `CC[C@H](C)[C@H](NC(=O)[C@H](Cc1cnc[nH]1)NC(C)=O)C(=O)N[C@H](C(=O)N[C@@H](CCCCN)C(=O)NCC(=O)N[C@@H](CC(C)C)C(N)=O)[C@@H](C)CC` [HIIKGL], the MIC in assay [35] and in [36] was at least 147 µM throughout.

As for `CC[C@H](C)[C@H](NC(=O)[C@H](CCCCN)NC(=O)[C@H](CCCCN)NC(=O)[C@H](CC(C)C)NC(=O)[C@H](CCCN=C(N)N)NC(=O)[C@H](Cc1c[nH]c2ccccc12)NC(=O)[C@H](CCCN=C(N)N)NC(=O)[C@@H](NC(=O)[C@H](CCCCN)NC(=O)[C@H](Cc1c[nH]c2ccccc12)NC(=O)[C@H](CCCN=C(N)N)NC(=O)[C@H](CC(C)C)NC(=O)[C@H](CCCN=C(N)N)NC(=O)[C@H](CCCN=C(N)N)NC(=O)[C@H](Cc1ccccc1)NC(=O)[C@@H](N)CCCN=C(N)N)[C@@H](C)O)C(N)=O` [RFRRLRWKTRWRLKKI], the MIC against Escherichia coli ER2566 was 8 µM (≈ 18.4 µg/mL); in assay [37] it was 8 µM; with Escherichia coli UB1005, 4 µM (≈ 9.2 µg/mL); in the assay on Escherichia coli 078, 4 µM (≈ 9.2 µg/mL); in [38] it was 4 µM (≈ 9.2 µg/mL); in assay [39], above 128 µM. For the same molecule, the MIC in assay [40] is 16 µM (≈ 36.8 µg/mL); in [41], at least 128 µM; in [42], 8 µM (≈ 18.4 µg/mL); in [43] it was 8 µM (≈ 18.4 µg/mL); in assay [44], at least 32 µM; with Escherichia coli 44102, 8 µM (≈ 18.4 µg/mL). Further, the MIC is 16 µM (≈ 36.8 µg/mL) in [45], 32 µM (≈ 73.6 µg/mL) in assay [46], 8 µM (≈ 18.4 µg/mL) in [34] and 4 µM (≈ 9.2 µg/mL) in the assay on Escherichia coli K88.
